Reference: US20160346226A1, “Therapeutic Applications Of Prenylated Stilbenoids Against Rotavirus Infections” (ARKANSAS STATE UNIVERSITY, priority 2015, published 2016)
Read-outs that look alike come from different tables or passages of the source.

What was measured:
[1] = test system: rotavirus (Wa) infected HT29.f8 cells; test: TEM observations of cell ultrastructure of rotavirus (Wa) infected HT29.f8 cells; format: cell-based, human; conditions: 20 μM, 18 hpi
Excerpt: Observations of Cell Ultrastructure with TEM of Rotavirus (RV) Infected HT29.f8 Cells w/without t-A3
Mitochondria (M), rotavirus particles (RV), and a nucleolus (N) can be seen. Final Magnification=8,300×.

RV SA114F [2] = test: Focus forming unit (FFU) viral titer of supernatants of RV-infected HT29.f8 cells treated with stilbenoids; format: cell-based, simian rotavirus SA114F
RV SA114F [3] = test: Plaque forming unit (PFU) assay of the same supernatants; format: cell-based, simian rotavirus SA114F; conditions: 20 μM, average of three experiments, HT29.f8 supernatants
[4] = test system: cannabinoid receptor 1 (CB1R); conditions: cited from earlier work; for mode of action at CB1R: reference [19]; for modulation of the cannabinoid receptors: references [18, 19]
RV-infected MA104 cells = conditions: reference [29]; cited from earlier work
[5] = test system: human leukemia HL-60 cells; conditions: reference [2]; cited from earlier work
mammalian cells = conditions: all cell lines, reference [3]; cited from earlier work

Row | Compound | change in virus titer (FFU) compared to RV-infected control (RV SA114F [2]) | difference in PFU/ml versus RV only and RV with DMSO (RV SA114F [3]) | mode of action at CB1R [4] | modulation of the cannabinoid receptors [4] | other results
1 | CC(C)/C=C/c1c(O)cc(/C=C/c2ccc(O)cc2)cc1O [t-A3, trans-arachidin-3] | one hundred fold decrease in virus titer | one hundred fold difference | competitive cannabinoid receptor 1 (CB1R) antagonist | modulate the cannabinoid receptors at micromolar levels | RV particles observed that were noninfectious, immature enveloped particles [1]: about 50%; autophagic vesicles (AV) ([1]; RV(Wa)): absent; mitochondria ultrastructure ([1]; RV(Wa)): Many mitochondria present with normal ultrastructure; nucleoli ([1]; RV(Wa)): Nucleoli present; vesicles in the cytoplasm ([1]; RV(Wa)): not as many as in the RV(Wa) only
2 | Oc1ccc(/C=C/c2cc(O)cc(O)c2)cc1 [t-Res, Trans-resveratrol, reference compound] |  | no statistical differences |  |  | change in virus titer (FFU) compared to RV-infected control (RV SA114F [2]; 20 μM, 24 hours post-infection, HT29.f8 cells): no change in the virus titer
3 | CCCCCCCCCCCCCCOc1ccc(C(=O)O)o1 [TOFA, 5-(tetradecyloxy)-2-furoic acid] |  |  |  |  | virus infectivity and viral RNA production (RV-infected MA104 cells): dose-dependent reduction
4 | CC(C)/C=C/c1c(O)cc(/C=C/c2ccc(O)c(O)c2)cc1O [t-A1, Trans-Arachidin-1] | one hundred fold decrease in virus titer | one hundred fold difference | antagonize CB1R agonists by both competitive and non-competitive mechanisms | modulate the cannabinoid receptors at micromolar levels | programmed cell death [5]: inducing programmed cell death; cytotoxicity (mammalian cells): highest but moderate cytotoxicity
